In patent US4322439A, “ω-[2-(N-Lower alkyl-benzamido)-phenyl]-alkanoic acids, their use, and medicaments containing them” (BYK Gulden Lomberg Chemische Fabrik GmbH, priority 1978, dated 1982):
Like-named read-outs stand apart in the source and are kept apart here.

What was measured:
[1] = tested on: fasting, metabolically healthy rats; assay: Blood glucose determination after single oral application (fasting, metabolically healthy rats); type: in vivo, Sprague-Dawley rats; settings: for A: Change of the blood glucose concentration (maximal, with reference to control animals): single oral administration 0.6 to 1.0 mmole/kg, maximal change within 24 hours; for ED50: read-out: B: ED50 (dose which effects a lowering of the blood glucose concentration by at least 15% in 50% of the animals)
Protocol: In Table I there are reproduced investigations of the influence of representatives of the compounds according to the invention on the blood glucose concentration of fasting, metabolically healthy rats after single oral administration of substance of 0.6 to 1.0 mmole/kg body weight within 24 hours. Column A states in each case the maximal lowering in % with reference to the control group within 24 hours after application of the compounds.
1. Blood Glucose Determination After Single Oral Application
Young male Sprague-Dawley rats (body weight 160-200 g) are used. The animals are kept in makralon cages with up to 5 animals per cage [room-temperature 23° C., humidity of the atmosphere 55%, fixed day/night rhythm (12/12 h), rat standard diet Altromin^R ].
Food is withdrawn from the animals 20-22 hours before the taking of the 1st blood sample. Water uptake occurs ad libitum. Blood samples are taken at intervals of 0, 2, 6 and 24 hours through puncture from the postorbital plexus.
After deproteinisation with perchloric acid, the blood glucose determination is effected by means of the enzymatic HK/G-6-POH method according to R. Richterich [Klinische Chemie, Theorie und Praxis, 3rd Edition, 1971, S. Karger Verlag, Zuerich-Basle, page 275].
For comparison, in each case a control group treated with pure solvent is also investigated.

[2] = in vivo; settings: mouse
Protocol: 3. Determination of the toxicity
The toxicity investigations were carried out on female NMRI mice (body weight 22-26 g). The animals (5 animals per dose) receive, 18 hours before the treatment, the food (Altromin®) reduced to 50 g/50 animals and water ad libitum. Various doses of the substances are administered per os or intraperitoneal (volume 20 ml/kg). The duration of observation is 7 days. The DL50, i.e. the dose at which 50% of the animals die, is determined graphically from the dose effect curve.

[3] = tested on: isolatedly perfused rat liver; assay: Inhibition of glucose formation (from lactate and pyruvate) on the isolatedly perfused rat liver; set-up: species or system Sprague-Dawley rats; settings: for D: ID50 (inhibition of the glucose formation from lactate and pyruvate by 50%): isolatedly perfused rat liver, concentration in the perfusate
Protocol: The values in column D show the concentrations (ID50 mmol/l) of the substances in the perfusate, which bring about on the isolatedly perfused rat liver an inhibition of the glucose formation from lactat and pyruvat by 50%.
2. Inhibition of Glucose Formation on the Isolatedly Perfused Rat Liver
Young male Sprague-Dawley rats (160-200 g) are used. The animals are kept as described under 1.
Food is withdrawn from the animals 20-22 hours before the operation. Water uptake occurs ad libitum. Operation and perfusion of the liver are effected according to the technique of R. Scholz et al. [Eur. J. Biochem. 38 (1973) 64-72]. As perfusion liquids, Krebs-Henseleit biocarbonate buffer (pH 7.4) is used which is saturated with an oxygen/carbon dioxide mixture (95/5) and contains 1.6 mmoles/liter L-lactates and 0.2 mmole/liter pyruvate. The perfusion liquid is pumped into the liver via a cannula introduced into the portal vein. The perfusion liquid emerging is collected via a cannula introduced into the vena cava and then taken past an oxygen electrode. The liver is perfused for about 2 hours. The test compounds are infused from the 32nd to 80th minute of the perfusion, with increasing concentrations (0.01, 0.03, 0.10 mmol/l).
Samples of the emerged perfusion liquid are collected at one-minute intervals and analysed for glucose, lactate and pyruvate according to enzymatic standard methods. The oxygen content is continuously determined by means of a platinum electrode. The check constants (ID50) stated in Table I refer to the state which exists before and after addition of the compounds; the changes caused alone through lactate and pyruvate were set at 100%.

[4] = rat, single oral administration, with reference to control group
[5] = ip, i.p., read-out: C: LD50 (i.p.)

SMILES: CN(C(=O)c1ccccc1)c1ccccc1CCCC(=O)O [Serial No. 3, 4-[2-(N-methylbenzamido)-phenyl]-butyric acid]
- A: Change of the blood glucose concentration (maximal, with reference to control animals) ([1]; rat): -27%
- ED50 [1, 4]: 205 mg/kg

SMILES: CN(C(=O)c1ccc(Cl)cc1Cl)c1ccccc1CCCC(=O)O [Serial No. 11, 4-[2-(N-methyl-2,4-dichlorobenzamido)-phenyl]-butyric acid]
- LD50 at 168 h ([2]; po, per os, read-out: C: LD50): > 1000 mg/kg
- A: Change of the blood glucose concentration (maximal, with reference to control animals) ([1]; rat): -17%
- ED50 [1, 4]: 245 mg/kg

SMILES: CN(C(=O)c1ccc(Cl)cc1)c1ccccc1CCC(=O)O [Serial No. 4, 3-[2-(N-methyl-4-chlorobenzamido)-phenyl]-propionic acid]
- A: Change of the blood glucose concentration (maximal, with reference to control animals) ([1]; rat): -16%
- ED50 [1, 4]: 426 mg/kg

SMILES: CN(C(=O)c1ccc(Cl)c(Cl)c1)c1ccccc1CCC(=O)O [Serial No. 5, 3-[2-(N-methyl-3,4-dichlorobenzamido)-phenyl]-propionic acid]
- LD50 at 168 h ([2]; po, per os, read-out: C: LD50): 1100 mg/kg
- A: Change of the blood glucose concentration (maximal, with reference to control animals) ([1]; rat): -11%
- ED50 [1, 4]: 363 mg/kg

SMILES: COc1ccc(N(C)C(=O)c2ccc(Cl)c(Cl)c2)c(CCCC(=O)O)c1 [Serial No. 14, 4-[5-methoxy-2-(N-methyl-3,4-dichloro-benzamido)-phenyl]-butyric acid]
- A: Change of the blood glucose concentration (maximal, with reference to control animals) ([1]; rat): -21%

SMILES: CN(C(=O)c1cccc(C(F)(F)F)c1)c1ccccc1CCCC(=O)O [Serial No. 12, 4-[2-(N-methyl-3-trifluoromethylbenzamido)-phenyl]-butyric acid]
- LD50 at 168 h [2, 5]: 150 mg/kg
- A: Change of the blood glucose concentration (maximal, with reference to control animals) ([1]; rat): -20%
- ED50 [1, 4]: 278 mg/kg

SMILES: [H]/N=C(/N)N/C(=N/[H])NCCc1ccccc1 [Serial No. 2, phenformin]
- inhibition of the glucose formation from lactate and pyruvate in the liver (in words) [3]: no inhibition
- D: ID50 (inhibition of the glucose formation from lactate and pyruvate by 50%) [3]: ineffective
- A: Change of the blood glucose concentration (maximal, with reference to control animals) ([1]; rat): -2%

SMILES: CN(C(=O)c1ccccc1)c1ccccc1CCC(=O)O [Serial No. 6, 3-[2-(N-methylbenzamido)-phenyl]-propionic acid]
- LD50 at 168 h ([2]; po, per os, read-out: C: LD50): 970 mg/kg
- A: Change of the blood glucose concentration (maximal, with reference to control animals) ([1]; rat): -26%
- ED50 [1, 4]: 221 mg/kg

SMILES: COc1cccc(N(C)C(=O)c2ccc(Cl)cc2)c1CCCC(=O)O [Serial No. 13, 4-[6-methoxy-2-(N-methyl-4-chlorobenzamido)-phenyl]-butyric acid]
- A: Change of the blood glucose concentration (maximal, with reference to control animals) ([1]; rat): -14%
- ED50 [1, 4]: > 500 mg/kg

SMILES: CCCCNC(=N)NC(=N)N [Serial No. 1, buformin, reference compound]
- inhibition of the glucose formation from lactate and pyruvate in the liver (in words) [3]: no inhibition
- D: ID50 (inhibition of the glucose formation from lactate and pyruvate by 50%) [3]: ineffective
- ED50 ([1]; Rattus norvegicus, po): 227 mg/kg
- A: Change of the blood glucose concentration (maximal, with reference to control animals) ([1]; rat): -20%

SMILES: CN(C(=O)c1ccc(Cl)c(Cl)c1)c1ccccc1CCCC(=O)O [Serial No. 10, 4-[2-(N-methyl-3,4-dichlorobenzamido)-phenyl]-butyric acid]
- LD50 at 168 h [2, 5]: 250 mg/kg
- A: Change of the blood glucose concentration (maximal, with reference to control animals) ([1]; rat): -17%
- ED50 [1, 4]: 198 mg/kg

SMILES: CN(C(=O)c1cccc(C(F)(F)F)c1)c1ccc(Cl)cc1CCC(=O)O [Serial No. 8, 3-[5-chloro-2-(N-methyl-3-trifluoromethylbenzamido)-phenyl]-propionic acid]
- LD50 at 168 h ([2]; po, per os, read-out: C: LD50): > 1000 mg/kg
- A: Change of the blood glucose concentration (maximal, with reference to control animals) ([1]; rat): -26%
- ED50 [1, 4]: 185 mg/kg

SMILES: CN(C(=O)c1ccc(Cl)c(Cl)c1)c1ccc(Cl)cc1CCC(=O)O [Serial No. 7, 3-[5-chloro-2-(N-methyl-3,4-dichlorobenzamido)-phenyl]-propionic acid]
- LD50 at 168 h ([2]; po, per os, read-out: C: LD50): > 1000 mg/kg
- A: Change of the blood glucose concentration (maximal, with reference to control animals) ([1]; rat): -15%

SMILES: CN(C(=O)c1ccc(Cl)c(Cl)c1)c1ccccc1CCCCC(=O)O [Serial No. 15, 5-[2-(N-methyl-3,4-dichlorobenzamido)-phenyl]-valeric acid]
- A: Change of the blood glucose concentration (maximal, with reference to control animals) ([1]; rat): -5%
- ED50 [1, 4]: > 700 mg/kg

SMILES: CN(C(=O)c1ccc(Cl)cc1)c1ccccc1CCCC(=O)O [Serial No. 9, 4-[2-(N-methyl-4-chlorobenzamido)-phenyl]-butyric acid]
- LD50 at 168 h ([2]; po, per os, read-out: C: LD50): > 1000 mg/kg
- A: Change of the blood glucose concentration (maximal, with reference to control animals) ([1]; rat): -24%
- ED50 [1, 4]: 103 mg/kg
